Test results reported in US20130281410A1, “METHODS FOR THE TREATMENT OF PSYCHIATRIC DISORDERS” (University of Utah Research Foundation, priority 2010, published 2013).

Key:
[1] = test system: adolescent MDD patients living at high altitude; experiment: Clinical study of creatine monohydrate in adolescent MDD patients living at high altitude (CDRS); format: in vivo, human; conditions: adolescents with MDD, Salt Lake City (4,300 feet), 5 g/day creatine monohydrate as a powder, 1 to 10 weeks
Description: Clinical assessment was performed using the Children's Depression Rating Scale (CDRS).
A clinical study was performed to determine the effect of creatine on adolescent MDD patients living at high altitude (Salt Lake City; elevation of 4,300 feet). In this study, three adolescents diagnosed as having MDD and living at high altitude were administered 5 g/day of creatine monohydrate (as a powder). The subjects in the study were monitored using the Children's Depression Rating Scale (CDRS). The study was performed for 1 to 10 weeks.

male MDD subjects = experiment: Clinical study of creatine monohydrate in male MDD subjects (HAMD, BDI); format: in vivo, human; conditions: 5 g/day creatine monohydrate as a powder vs placebo, 0 to 8 weeks, FIGS. 1A and 1B
Description: FIGS. 1A and 1B show clinical assessment data of male subjects having MDD upon treatment with placebo (grey lines) or creatine monohydrate (5 g/day, black lines) for 0 to 8 weeks. Clinical assessment was performed using the Hamilton Depressing Rating Scale (FIG. 1A) or the Beck Depression Inventory scale (FIG. 1B).
A clinical study was performed to study the effect of creatine administration on male MDD subjects. A total of 6 male subjects (mean age of 42.7 years; age range 27 to 63) were enrolled in this study. Among the subjects, 5 subjects (mean age of 38.6 years; age range of 27 to 59) underwent at least one follow-up assessment. Three subjects received 5 g/day creatine monohydrate (as a powder), and two subjects received a placebo. The MDD symptoms of the subjects were assessed using the Hamilton Depression Rating Scale (HAMD) (FIG. 1A) or the Beck Depression Inventory (BDI) (FIG. 1B). The baseline HAMD total score for intention-to-treat sample was 30.4 (standard deviation of 5.1) and the baseline BDI total score was 31 (standard deviation of 11.3).

CN(CC(=O)O)C(=N)N.O [creatine, creatine monohydrate]
symptoms of MDD in patients living at high altitude [1]: reduces the symptoms of MDD in patients living at high altitude | Children's Depression Rating Scale (CDRS) score ([1]; after failing an SSRI trial, FIG. 2): reduction in CDRS score | symptoms of MDD, Hamilton Depression Rating Scale (HAMD) and Beck Depression Inventory (BDI) (male MDD subjects): reduces the symptoms of MDD in male subjects
